Data reported in patent publication US20120264603A1, “ATTACHMENT AND RETENTION FORMULATIONS FOR BIOLOGICALLY ACTIVE ORGANIC COMPOUNDS” (priority 2010, published 2012).

Experiment: Water solubility of sulfentrazone as a function of pH
Format: physicochemical

**Q.** For `Cc1nn(-c2cc(NS(C)(=O)=O)c(Cl)cc2Cl)c(=O)n1C(F)F` [sulfentrazone], which solubility in water (at 7.5 pH) is on record?
**A.** soluble in water

**Q.** What about the solubility in water (pH ~5) of the same molecule?
**A.** sparingly soluble in water
